Assay type in all cases: cell-based
The subject of experiment [1] is SW480 colon cancer cells. The experiment is described as follows: Cell viability assay (CellTiter-Blue), four days. The conditions noted are these: Homo sapiens, 96 h; for inhibition at 10 µM: read-out: percent inhibition at 10 μM (given for EC50 of >10 μM); for pEC50: CellTiter-Blue cell viability. Put shortly: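 SW480 colon cancer cells (~2×10^3/well) exposed to 8-point 1:3 dilutions from 10 μM to 0.0045 μM for four days at 37 °C/5% CO2. Viability read by resazurin (CellTiter-Blue) fluorescence after ~3 h, Ex 560/Em 590 nm. EC50 from non-linear regression; percent inhibition at 10 μM given when EC50 >10 μM.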

In experiment [2] the test system is IL-6 in human monocyte cell line (THP-1 cells). As to the kind of experiment: IL-6 inhibition in LPS-stimulated THP-1 cells (HTRF). Particulars: IL-6 in LPS-stimulated THP-1 cells; for pEC50: HTRF; for inhibition at 10 µM: read-out: percent inhibition in brackets beside EC50 >10 μM. Put shortly:
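THP-1 cells, serum-reduced (1% FBS) for 24 h, were preincubated with compound (10-point 1:3 series from 10 μM, 0.1% DMSO) for 2 h, then stimulated with 500 ng/mL LPS for 22 h at 37° C. IL-6 was read by HTRF (665/620 nm ratio) and normalized to DMSO. EC50 from four-parameter fit; % inhibition at 10 μM given if EC50 >10 μM.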
Background: TR-FRET usually uses a lanthanide donor and a delayed reading to cut background.

The test system of experiment [3] is primary human mesenchymal stem cells (hMSCs). The experiment is described as follows: Induction of chondrogenesis in hMSCs (nodule area, Rhodamine B / Nile Red). Particulars: TGF-β3 as positive control; for Emax: read-out: Max. Activity as % TGF-β3 activity. The method in brief:
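Primary hMSCs (passage 3–6) in incomplete chondrogenic induction medium were treated 6 days at 37° C. with 1:3 dilutions (2700–10 nM in 96-well or 5000–2.2 nM in 384-well; 0.03% DMSO). Rhodamine B/Nile Red-stained nodule area was imaged, normalized to DMSO wells, and EC50 was set against TGF-β3 (10 ng/mL).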

pEC50: −log10 of the molar value.

Among the data in US10195185B2, “3-(1H-imidazo[4,5-C]pyridin-2-yl)-1H-pyrazolo[4,3-B]pyridines and therapeutic uses thereof” (Samumed, LLC, priority 2015, dated 2019) are inhibition, EC50 and Emax values, retold here.

The term inhibition denotes how much of the control response was suppressed. The pEC50 is −log10 of the EC50, conventionally taken in molar units. Lower therefore signals a high EC50.

For `CS(=O)(=O)NCc1cc(F)cc(-c2nccc3[nH]c(-c4n[nH]c5ccc(-c6cncnc6)nc45)nc23)c1` [Compound 503, N-(3-Fluoro-5-(2-(5-(pyrimidin-5-yl)-1H-pyrazolo[4,3-b]pyridin-3-yl)-1H-imidazo[4,5-c]pyridin-4-yl)benzyl)methanesulfonamide], in experiment [1], the inhibition at 10 µM was 0.8% and the pEC50 was less than 5.00. In addition, in experiment [2], the negative-log EC50 (pEC50) is less than 5.00 and the inhibition at 10 µM turned out to be 40.8%.

For `O=C(Nc1cncc(-c2ccc3[nH]nc(-c4nc5c(-c6cccc(F)c6)nccc5[nH]4)c3n2)c1)C1CC1` [Compound 20, N-(5-(3-(4-(3-Fluorophenyl)-1H-imidazo[4,5-c]pyridin-2-yl)-1H-pyrazolo [4,3-b]pyridin-5-yl)pyridin-3-yl)cyclopropanecarboxamide], in experiment [1], the inhibition at 10 µM stood at 6% and the pEC50 is less than 5.00. In experiment [2], the pEC50 was less than 5.00 and the inhibition at 10 µM was 0%.

For the molecule `CCCC(=O)Nc1cncc(-c2ccc3[nH]nc(-c4nc5c(-c6cc(F)cc(CNS(C)(=O)=O)c6)nccc5[nH]4)c3n2)c1` [Compound 493, N-(5-(3-(4-(3-Fluoro-5-(methylsulfonamidomethyl)phenyl)-1H-imidazo[4,5-c]pyridin-2-yl)-1H-pyrazolo[4,3-b]pyridin-5-yl)pyridin-3-yl)butyramide], the inhibition at 10 µM in experiment [1] was determined as 4.3%; in experiment [2] it was 20.3%. Moreover, the pEC50 in experiment [1] and in experiment [2] was less than 5.00 each time. The Emax in experiment [3] stood at 46%.

For `Cc1ccncc1-c1ccc2[nH]nc(-c3nc4c(-c5cc(F)cc(CNS(C)(=O)=O)c5)nccc4[nH]3)c2n1` [Compound 481, N-(3-Fluoro-5-(2-(5-(4-methylpyridin-3-yl)-1H-pyrazolo[4,3-b]pyridin-3-yl)-1H-imidazo[4,5-c]pyridin-4-yl)benzyl)methanesulfonamide], the results for the pEC50 in experiment [1] and in experiment [2] were 5.15 and 5.01, respectively. In addition, in experiment [3], the Emax stood at 30%.

As to `O=C(Nc1cncc(-c2ccc3[nH]nc(-c4nc5c(-c6cccs6)nccc5[nH]4)c3n2)c1)C1CC1` [Compound 356, N-(5-(3-(4-(Thiophen-2-yl)-1H-imidazo[4,5-c]pyridin-2-yl)-1H-pyrazolo [4,3-b]pyridin-5-yl)pyridin-3-yl)cyclopropanecarboxamide], in experiment [1], the inhibition at 10 µM turned out to be 1.5% and the pEC50 was less than 5.00. Further, in experiment [2], the pEC50 was less than 5.00 and the inhibition at 10 µM stood at 0%.

In turn, `CN(C)CCNc1cc(F)cc(-c2nccc3[nH]c(-c4n[nH]c5ccc(-c6ccccn6)nc45)nc23)c1` [Compound 476, N^1-(3-Fluoro-5-(2-(5-(pyridin-2-yl)-1H-pyrazolo[4,3-b]pyridin-3-yl)-1H-imidazo[4,5-c]pyridin-4-yl)phenyl)-N^2,N^2-dimethylethane-1,2-diamine] showed a pEC50 in experiment [1] of 5.20. In addition, in experiment [2], the pEC50 is less than 5.00 and the inhibition at 10 µM was found to be 35.8%.

With `CN(C)CCOc1cncc(-c2ccc3[nH]nc(-c4nc5c(-c6cccc(F)c6)nccc5[nH]4)c3n2)c1` [Compound 515, 2-((5-(3-(4-(3-Fluorophenyl)-1H-imidazo[4,5-c]pyridin-2-yl)-1H-pyrazolo [4,3-b]pyridin-5-yl)pyridin-3-yl)oxy)-N,N-dimethylethan-1-amine], the negative-log EC50 (pEC50) in experiment [1] is 5.79; in experiment [2], 5.45. Moreover, the Emax in experiment [3] is 59%. The EC50 in experiment [3] (concentration required to induce 50% levels of chondrogenesis, read-out: Conc (nM) of 50% TGF-β3 activity) is 2 nM.

In the case of `Fc1cccc(-c2nccc3[nH]c(-c4n[nH]c5ccc(C6CCNCC6)nc45)nc23)c1` [Compound 505, 3-(4-(3-Fluorophenyl)-1H-imidazo[4,5-c]pyridin-2-yl)-5-(piperidin-4-yl)-1H-pyrazolo[4,3-b]pyridine], in experiment [1], the inhibition at 10 µM worked out at 0.4% and the negative-log EC50 (pEC50) is less than 5.00. In experiment [3], the Emax was determined as 46%. For the same molecule, in experiment [2], the pEC50 was less than 5.00 and the inhibition at 10 µM stood at 9.3%.

In experiment [1], `Fc1cccc(-c2nccc3[nH]c(-c4n[nH]c5ccc(-c6cncc(OCCN7CCCC7)c6)nc45)nc23)c1` [Compound 514, 3-(4-(3-Fluorophenyl)-1H-imidazo[4,5-c]pyridin-2-yl)-5-(5-(2-(pyrrolidin-1-yl)ethoxy)pyridin-3-yl)-1H-pyrazolo[4,3-b]pyridine] gave a pEC50 of 5.46. Also, in experiment [2], the negative logarithm of the EC50 (pEC50) is less than 5.00 and the inhibition at 10 µM came to 47.8%.

For the molecule `c1cc(-c2nccc3[nH]c(-c4n[nH]c5ccc(-c6cncc(OC7CCNCC7)c6)nc45)nc23)ccn1` [Compound 576, 5-(5-(Piperidin-4-yloxy)pyridin-3-yl)-3-(4-(pyridin-4-yl)-1H-imidazo[4,5-c]pyridin-2-yl)-1H-pyrazolo[4,3-b]pyridine], the inhibition at 10 µM in experiment [1] was 24.6%; in experiment [2] it was 22.3%. Besides, the pEC50 in experiment [1] and in experiment [2] was less than 5.00 throughout.

As to `c1cncc(-c2nccc3[nH]c(-c4n[nH]c5ccc(-c6cncc(OC7CCCCC7)c6)nc45)nc23)c1` [Compound 559, 5-(5-(Cyclohexyloxy)pyridin-3-yl)-3-(4-(pyridin-3-yl)-1H-imidazo[4,5-c]pyridin-2-yl)-1H-pyrazolo[4,3-b]pyridine], in experiment [1], the inhibition at 10 µM stood at 18% and the pEC50 was less than 5.00. In experiment [2], the negative-log EC50 (pEC50) was less than 5.00 and the inhibition at 10 µM was 42.7%.

On to `c1cc(-c2nccc3[nH]c(-c4n[nH]c5ccc(-c6cnccn6)nc45)nc23)ccn1` [Compound 584, 5-(Pyrazin-2-yl)-3-(4-(pyridin-4-yl)-1H-imidazo[4,5-c]pyridin-2-yl)-1H-pyrazolo[4,3-b]pyridine], for which, in experiment [1], the inhibition at 10 µM came out at 2.1% and the negative logarithm of the EC50 (pEC50) is less than 5.00. In experiment [2], the negative logarithm of the EC50 (pEC50) is less than 5.00 and the inhibition at 10 µM stood at 32.2%.

Regarding `c1ccc(COc2cncc(-c3ccc4[nH]nc(-c5nc6c(-c7ccncc7)nccc6[nH]5)c4n3)c2)cc1` [Compound 582, 5-(5-(Benzyloxy)pyridin-3-yl)-3-(4-(pyridin-4-yl)-1H-imidazo[4,5-c]pyridin-2-yl)-1H-pyrazolo[4,3-b]pyridine], in experiment [1], the inhibition at 10 µM worked out at 10.9% and the pEC50 is less than 5.00. Also, in experiment [2], the negative logarithm of the EC50 (pEC50) was less than 5.00 and the inhibition at 10 µM was determined as 8.3%.

On to `c1cc2[nH]c(-c3n[nH]c4ccc(-c5cncc(OCCN6CCCC6)c5)nc34)nc2c(N2CCCCC2)n1` [Compound 610, 3-(4-(Piperidin-1-yl)-1H-imidazo[4,5-c]pyridin-2-yl)-5-(5-(2-(pyrrolidin-1-yl)ethoxy)pyridin-3-yl)-1H-pyrazolo[4,3-b]pyridine], for which the negative logarithm of the EC50 (pEC50) in experiment [1] is 5.01. For the same molecule, in experiment [2], the negative logarithm of the EC50 (pEC50) was less than 5.00 and the inhibition at 10 µM is 34.9%.

As to `Cc1cn(-c2nccc3[nH]c(-c4n[nH]c5ccc(-c6cncc(OCCN(C)C)c6)nc45)nc23)cn1` [Compound 627, N,N-Dimethyl-2-((5-(3-(4-(4-methyl-1H-imidazol-1-yl)-1H-imidazo[4,5-c]pyridin-2-yl)-1H-pyrazolo[4,3-b]pyridin-5-yl)pyridin-3-yl)oxy)ethan-1-amine], in experiment [1], the inhibition at 10 µM amounted to 8.2% and the pEC50 is less than 5.00. Further, in experiment [2], the pEC50 was less than 5.00 and the inhibition at 10 µM was 17.6%.

In the case of `CS(=O)(=O)NCc1cc(F)cc(-c2nccc3[nH]c(-c4n[nH]c5ccc(-c6cncc(NC(=O)c7ccccc7)c6)nc45)nc23)c1` [Compound 487, N-(5-(3-(4-(3-Fluoro-5-(methylsulfonamidomethyl)phenyl)-1H-imidazo[4,5-c]pyridin-2-yl)-1H-pyrazolo[4,3-b]pyridin-5-yl)pyridin-3-yl)benzamide], in experiment [1], the inhibition at 10 µM was found to be 0% and the pEC50 was less than 5.00. Besides, in experiment [2], the pEC50 is less than 5.00 and the inhibition at 10 µM turned out to be 16.9%.

In the case of `Oc1cncc(-c2ccc3[nH]nc(-c4nc5c(-c6cccnc6)nccc5[nH]4)c3n2)c1` [Compound 565, 5-(3-(4-(Pyridin-3-yl)-1H-imidazo[4,5-c]pyridin-2-yl)-1H-pyrazolo[4,3-b]pyridin-5-yl)pyridin-3-ol], in experiment [1], the inhibition at 10 µM came to 32.7% and the negative-log EC50 (pEC50) was less than 5.00. The molecule also gave a negative logarithm of the EC50 (pEC50) in experiment [2] of 5.51.

Regarding `Cc1ccc(-c2nccc3[nH]c(-c4n[nH]c5ccc(-c6cncc(NC(=O)C7CCCC7)c6)nc45)nc23)s1` [Compound 414, N-(5-(3-(4-(5-Methylthiophen-2-yl)-1H-imidazo[4,5-c]pyridin-2-yl)-1H-pyrazolo[4,3-b]pyridin-5-yl)pyridin-3-yl)cyclopentanecarboxamide], in experiment [1], the inhibition at 10 µM came out at 0.4% and the pEC50 is less than 5.00. Further, in experiment [2], the negative logarithm of the EC50 (pEC50) is less than 5.00 and the inhibition at 10 µM is 46.3%.

Turning to `O=C(CC1CCNCC1)Nc1cncc(-c2ccc3[nH]nc(-c4nc5c(-c6ccccn6)nccc5[nH]4)c3n2)c1` [Compound 593, 2-(Piperidin-4-yl)-N-(5-(3-(4-(pyri-2-yl)-1H-imidazo[4,5-c]pyridin-2-yl)-1H-pyrazolo[4,3-b]pyridin-5-yl)pyridin-3-yl)acetamide], in experiment [1], the inhibition at 10 µM was determined as 9.1% and the pEC50 is less than 5.00. Further, in experiment [2], the negative-log EC50 (pEC50) is less than 5.00 and the inhibition at 10 µM amounted to 32.5%.
